Values belong to the molecule of their own block, whether it stands above or below them.
Biological target: Human MGAT-2 (Homo sapiens (Human), UniProt Q3SYC2)
Test: MGAT LCMS Assay (human MGAT-2);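 also: diolein product quantified by LC/MS with positive APCI, expressed as peak area ratio versus an internal standard, and this ratio used to derive IC50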
Format: biochemical
Conditions: human MGAT-2 membranes expressed in Sf9 cells; 2-oleoylglycerol and oleoyl-Coenzyme A; read-out: h-MGAT2 IC50 (nM) LCMS Assay

Human MGAT-2, sequence (Q3SYC2 whole entry): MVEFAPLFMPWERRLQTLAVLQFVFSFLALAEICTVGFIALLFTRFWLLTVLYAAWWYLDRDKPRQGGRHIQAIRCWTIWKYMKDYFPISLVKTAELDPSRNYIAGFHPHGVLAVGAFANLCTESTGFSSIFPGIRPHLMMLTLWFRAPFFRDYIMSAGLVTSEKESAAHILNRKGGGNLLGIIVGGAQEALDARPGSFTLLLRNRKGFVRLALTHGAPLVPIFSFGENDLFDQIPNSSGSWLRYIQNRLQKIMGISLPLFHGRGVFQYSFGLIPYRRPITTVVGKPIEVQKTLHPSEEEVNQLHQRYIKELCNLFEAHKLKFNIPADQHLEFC

Compound: Cc1ccc(C2=C(c3nn[nH]n3)C(=O)NC(c3ccc(OCCCCCC(F)(F)F)c(C)c3)(C(F)(F)F)C2)cc1 (stereo not shown) [Example 287]
IC50: 13 nM

Compound: Cc1ccc(C2=C(c3nn[nH]n3)C(=O)NC(c3ccc(OCC4CC(F)(F)C4)cc3)(C(F)(F)F)C2)cc1 (stereo not shown) [Example 288]
IC50: 19 nM

Compound: Cc1ccc(C2=C(c3nn[nH]n3)C(=O)NC(c3ccc(C#CCC4CCCCC4)cc3)(C(F)(F)F)C2)cc1 (stereo not shown) [Example 289]
IC50: 19 nM

Compound: Cc1ccc(C2=C(c3nn[nH]n3)C(=O)NC(c3ccc(C#CC4CCCCC4)cc3)(C(F)(F)F)C2)cc1 (stereo not shown) [Example 291]
IC50: 178 nM

Compound: CCCCCC#CC1(C(F)(F)F)CC(c2ccc(C)cc2)=C(c2nn[nH]n2)C(=O)N1 (stereo not shown) [Example 293]
IC50: 7 nM

Compound: COc1ccc(C2=C(c3nn[nH]n3)C(=O)NC(C#CCCC(C)C)(C(F)(F)F)C2)cc1 (stereo not shown) [Example 295]
IC50: 183 nM

Compound: COc1ccc(NC(=O)C2=C(c3ccc(C)cc3F)CC(c3ccc(OCCCC(F)(F)F)cc3)(C(F)(F)F)NC2=O)cc1 (stereo not shown) [Example 296]
IC50: 2 nM

Compound: Cc1ccc(C2=C(NC(=O)CNS(C)(=O)=O)C(=O)NC(c3ccc(OCCCC(F)(F)F)cc3)(C(F)(F)F)C2)cc1 (stereo not shown) [Example 297]
IC50: 639 nM

Compound: CCCCCCC#CC1(C(F)(F)F)CC(c2ccc(C)cc2)=C(NC(=O)CNS(C)(=O)=O)C(=O)N1 (stereo not shown) [Example 298]
IC50: 2 nM

Compound: Cc1ccc(C2=C(NC(=O)c3cccnc3)C(=O)NC(c3ccc(OCCCC(F)(F)F)cc3)(C(F)(F)F)C2)cc1 (stereo not shown) [Example 299]
IC50: 11 nM

Compound: CCCCCCC#CC1(C(F)(F)F)CC(c2ccc(C)cc2)=C(NC(=O)c2cccnc2)C(=O)N1 (stereo not shown) [Example 300]
IC50: 11 nM

Compound: O=C1NC(c2ccc(OCCCCCC(F)(F)F)c(F)c2)(C(F)(F)F)CC(c2ccc(OC(F)F)cc2)=C1c1nn[nH]n1 (stereo not shown) [Example 301]
IC50: 19 nM

Compound: CCCOc1ccc(C2(C(F)(F)F)CC(c3ccc(C)cc3)=C(NC(=O)CS(C)(=O)=O)C(=O)N2)cc1 (stereo not shown) [Example 302]
IC50: 105 nM

Compound: O=C1NC(c2ccc(OCCCCCC(F)(F)F)c(F)c2)(C(F)(F)F)CC(c2ccc3ccccc3c2)=C1c1nn[nH]n1 (stereo not shown) [Example 304]
IC50: 6 nM

Compound: O=C1NC(c2ccc(OCCCCCC(F)(F)F)c(F)c2)(C(F)(F)F)CC(c2ccc(CC(F)(F)F)cc2)=C1c1nn[nH]n1 (stereo not shown) [Example 306]
IC50: 3 nM

Compound: CCCCCCC#Cc1ccc(C2(C(F)(F)F)CC(c3ccc(OCC)cc3)=C(c3nn[nH]n3)C(=O)N2)cc1F (stereo not shown) [Example 308]
IC50: 61 nM

Compound: O=C1NC(c2ccc(OCCCCCC(F)(F)F)c(F)c2)(C(F)(F)F)CC(c2ccc3ccccc3c2)=C1c1nn[nH]n1 (stereo not shown) [Example 309]
IC50: 1 nM

Next, values leading:

IC50: 56 nM
Compound: Cc1ccc(C2=C(c3nn[nH]n3)C(=O)NC(c3ccc(C#CCOCc4ccccc4)cc3)(C(F)(F)F)C2)cc1 (stereo not shown) [Example 290]

IC50: 304 nM
Compound: CCCCCCCc1cnc(C2(C(F)(F)F)CC(c3ccc(C)cc3)=C(c3nn[nH]n3)C(=O)N2)s1 (stereo not shown) [Example 292]

IC50: 84 nM
Compound: COc1ccc(C2=C(c3nn[nH]n3)C(=O)NC(C#CCCc3ccccc3)(C(F)(F)F)C2)cc1 (stereo not shown) [Example 294]

IC50: 94 nM
Compound: CCOc1ccc(C2=C(c3nn[nH]n3)C(=O)NC(c3ccc(OCCCCCC(F)(F)F)c(F)c3)(C(F)(F)F)C2)cc1 (stereo not shown) [Example 305]

IC50: 3 nM
Compound: CCCCCCC#Cc1ccc(C2(C(F)(F)F)CC(c3ccc(OC(F)F)cc3)=C(c3nn[nH]n3)C(=O)N2)cc1F (stereo not shown) [Example 307]

IC50: 4 nM
Compound: Cc1ccc(C2=C(NC(=O)c3nnn[nH]3)C(=O)NC(c3ccc(OCCCC(F)(F)F)cc3)(C(F)(F)F)C2)cc1 (stereo not shown) [Example 310]

IC50: 3 nM
Compound: CCCCCCCC#CC1(C(F)(F)F)CC(c2ccc(C)cc2)=C(NC(=O)c2nnn[nH]2)C(=O)N1 (stereo not shown) [Example 311]

IC50: 4 nM
Compound: CCCCCCCC#CC1(C(F)(F)F)CC(c2ccc(OC(F)F)cc2)=C(NC(=O)CS(C)(=O)=O)C(=O)N1 (stereo not shown) [Example 313]
